Laboratory results published in patent publication US8748481B2, “Method for treating gastrointestinal disorder” (Sucampo AG, priority 2004, dated 2014).
Marks after values point to notes of the source that are not given here.

Key:
[1] = test system: different aged patients with occasional constipation; experiment: Weekly number of spontaneous bowel movements by age (Example 5); type: in vivo, human; conditions: 48 μg/day, 4 weeks; all aged groups, even 65 years and older
Description: Multi-center, parallel-group, double-blind, placebo-controlled study was performed to compare the effect of Compound A on improving weekly number of spontaneous bowel movements among different aged patients with occasional constipation. The patients were received 48 μg (total daily dose) of Compound A (24 μg of Compound A b.i.d) for 4 weeks. The bowel movements in the patient were recorded during the treatment.

[2] = test system: subjects with irritable bowel syndrome (IBS); experiment: IBS QOL questionnaire, 12-week double-blind randomized study (Example 7); type: in vivo, human; set-up: key to IBS QOL Overall scaled score, Mean / IBS QOL Dysphoria scaled score, Mean / IBS QOL Interference with Activity scaled score, Mean / IBS QOL Body Image scaled score, Mean / IBS QOL Health Worry scaled score, Mean / IBS QOL Food Avoidance scaled score, Mean / IBS QOL Social Reaction scaled score, Mean / IBS QOL Sexual scaled score, Mean / IBS QOL Relationship scaled score, Mean: IBS-QOL scaled score, 0–100; conditions: for IBS QOL Body Image scaled score, Mean / IBS QOL Dysphoria scaled score, Mean / IBS QOL Food Avoidance scaled score, Mean / IBS QOL Health Worry scaled score, Mean / IBS QOL Interference with Activity scaled score, Mean / IBS QOL Overall scaled score, Mean / IBS QOL Relationship scaled score, Mean / IBS QOL Sexual scaled score, Mean / IBS QOL Social Reaction scaled score, Mean: Baseline; for IBS QOL Body Image, Mean change from Baseline / IBS QOL Dysphoria, Mean change from Baseline / IBS QOL Food Avoidance, Mean change from Baseline / IBS QOL Health Worry, Mean change from Baseline / IBS QOL Interference with Activity, Mean change from Baseline / IBS QOL Overall, Mean change from Baseline / IBS QOL Relationship, Mean change from Baseline / IBS QOL Sexual, Mean change from Baseline / IBS QOL Social Reaction, Mean change from Baseline: without LOCF
Description: A 12-week, double-blind, randomized study was performed to assess the safety and efficacy of oral 16 μg, 32 μg and 48 μg (total daily dose) of compound A to subjects with irritable bowel syndrome (IBS).
The patients answered the IBS QOL questionnaire at baseline, at week 4, Week 12 and at the end of study, and Questionnaire results were scored according to the IBS QOL User's Manual (A Quality of Life Measure for Persons with Irritable Bowel Syndrome (IBS-QOL): User's Manual and Scoring Diskette for United States Version. Seattle, Wash.: University of Washington; 1997). Scaled scores were used for all analyses, and scores were calculated according to the User's Manual as follows: Scaled Score=([Sum of IBS-QOL items−lowest possible score]/Possible raw score range))×100
Changes from baseline at week 4, week 12 and at the End of Study were assessed for the mean overall score and for the mean domain scores (dysphoria, interference with activity, body image, health worry, food avoidance, social reaction, sexual, and relationship).

CCCCC(F)(F)C(=O)CCC1C(O)CC(=O)C1CCCCCCC(=O)O (centres unmarked) [Compound A, 13,14-dihydro-15-keto-16,16-difluoro-PGE1]
Effect on weekly number of spontaneous bowel movements by age (FIG. 14) [1]: significantly effective
Improvement from baseline in IBS-QOL compared among dose groups ([2]; 16 μg group vs. 32 μg and 48 μg groups, every specific area and QOL overall): greatest improvement
IBS QOL Body Image scaled score, Mean ([2]; 16 μg group): 41.42
IBS QOL Dysphoria scaled score, Mean ([2]; 16 μg group): 53.19
IBS QOL Food Avoidance scaled score, Mean ([2]; 16 μg group): 46.08
IBS QOL Health Worry scaled score, Mean ([2]; 16 μg group): 37.74
IBS QOL Interference with Activity scaled score, Mean ([2]; 16 μg group): 65.82
IBS QOL Overall scaled score, Mean ([2]; 16 μg group): 55.66
IBS QOL Relationship scaled score, Mean ([2]; 16 μg group): 67.81
IBS QOL Sexual scaled score, Mean ([2]; 16 μg group): 64.95
IBS QOL Social Reaction scaled score, Mean ([2]; 16 μg group): 63.97
IBS QOL Body Image, Mean change from Baseline ([2]; 16 μg/day, End of Study): 20.41**
IBS QOL Dysphoria, Mean change from Baseline ([2]; 16 μg/day, End of Study): 21.62**
IBS QOL Food Avoidance, Mean change from Baseline ([2]; 16 μg/day, End of Study): 13.95**
IBS QOL Health Worry, Mean change from Baseline ([2]; 16 μg/day, End of Study): 21.94**
IBS QOL Interference with Activity, Mean change from Baseline ([2]; 16 μg/day, End of Study): 11.95**
IBS QOL Overall, Mean change from Baseline ([2]; 16 μg/day, End of Study): 16.82**
IBS QOL Relationship, Mean change from Baseline ([2]; 16 μg/day, End of Study): 14.28**
IBS QOL Sexual, Mean change from Baseline ([2]; 16 μg/day, End of Study): 14.03**
IBS QOL Social Reaction, Mean change from Baseline ([2]; 16 μg/day, End of Study): 13.78**
IBS QOL Body Image, Mean change from Baseline ([2]; 16 μg/day, Week 4): 16.39**
IBS QOL Dysphoria, Mean change from Baseline ([2]; 16 μg/day, Week 4): 17.85**
IBS QOL Food Avoidance, Mean change from Baseline ([2]; 16 μg/day, Week 4): 13.89**
IBS QOL Health Worry, Mean change from Baseline ([2]; 16 μg/day, Week 4): 22.41**
IBS QOL Interference with Activity, Mean change from Baseline ([2]; 16 μg/day, Week 4): 10.87**
IBS QOL Overall, Mean change from Baseline ([2]; 16 μg/day, Week 4): 14.7**
IBS QOL Relationship, Mean change from Baseline ([2]; 16 μg/day, Week 4): 10.74**
IBS QOL Sexual, Mean change from Baseline ([2]; 16 μg/day, Week 4): 13.33**
IBS QOL Social Reaction, Mean change from Baseline ([2]; 16 μg/day, Week 4): 11.94**
IBS QOL Body Image, Mean change from Baseline ([2]; 16 μg/day, Week 12): 22.32**
IBS QOL Dysphoria, Mean change from Baseline ([2]; 16 μg/day, Week 12): 23.51**
IBS QOL Food Avoidance, Mean change from Baseline ([2]; 16 μg/day, Week 12): 15.28**
IBS QOL Health Worry, Mean change from Baseline ([2]; 16 μg/day, Week 12): 23.81**
IBS QOL Interference with Activity, Mean change from Baseline ([2]; 16 μg/day, Week 12): 13.95**
IBS QOL Overall, Mean change from Baseline ([2]; 16 μg/day, Week 12): 18.54**
IBS QOL Relationship, Mean change from Baseline ([2]; 16 μg/day, Week 12): 15.47**
IBS QOL Sexual, Mean change from Baseline ([2]; 16 μg/day, Week 12): 16.67**
IBS QOL Social Reaction, Mean change from Baseline ([2]; 16 μg/day, Week 12): 14.58**
IBS QOL Body Image scaled score, Mean ([2]; 32 μg group): 43.37
IBS QOL Dysphoria scaled score, Mean ([2]; 32 μg group): 59.69
IBS QOL Food Avoidance scaled score, Mean ([2]; 32 μg group): 52.21
IBS QOL Health Worry scaled score, Mean ([2]; 32 μg group): 44.38
IBS QOL Interference with Activity scaled score, Mean ([2]; 32 μg group): 69.82
IBS QOL Overall scaled score, Mean ([2]; 32 μg group): 60.14
IBS QOL Relationship scaled score, Mean ([2]; 32 μg group): 70.23
IBS QOL Sexual scaled score, Mean ([2]; 32 μg group): 68.62
IBS QOL Social Reaction scaled score, Mean ([2]; 32 μg group): 66.84
IBS QOL Body Image, Mean change from Baseline ([2]; 32 μg/day, End of Study): 17.47**
IBS QOL Dysphoria, Mean change from Baseline ([2]; 32 μg/day, End of Study): 14.77**
IBS QOL Food Avoidance, Mean change from Baseline ([2]; 32 μg/day, End of Study): 10.79**
IBS QOL Health Worry, Mean change from Baseline ([2]; 32 μg/day, End of Study): 17.61**
IBS QOL Interference with Activity, Mean change from Baseline ([2]; 32 μg/day, End of Study): 8.2**
IBS QOL Overall, Mean change from Baseline ([2]; 32 μg/day, End of Study): 12.58**
IBS QOL Relationship, Mean change from Baseline ([2]; 32 μg/day, End of Study): 10.79**
IBS QOL Sexual, Mean change from Baseline ([2]; 32 μg/day, End of Study): 10.23**
IBS QOL Social Reaction, Mean change from Baseline ([2]; 32 μg/day, End of Study): 11.08**
IBS QOL Body Image, Mean change from Baseline ([2]; 32 μg/day, Week 4): 15.28**
IBS QOL Dysphoria, Mean change from Baseline ([2]; 32 μg/day, Week 4): 14.58**
IBS QOL Food Avoidance, Mean change from Baseline ([2]; 32 μg/day, Week 4): 8.33*
IBS QOL Health Worry, Mean change from Baseline ([2]; 32 μg/day, Week 4): 16.9**
IBS QOL Interference with Activity, Mean change from Baseline ([2]; 32 μg/day, Week 4): 7.04*
IBS QOL Overall, Mean change from Baseline ([2]; 32 μg/day, Week 4): 11.25**
IBS QOL Relationship, Mean change from Baseline ([2]; 32 μg/day, Week 4): 7.64*
IBS QOL Sexual, Mean change from Baseline ([2]; 32 μg/day, Week 4): 8.68**
IBS QOL Social Reaction, Mean change from Baseline ([2]; 32 μg/day, Week 4): 9.9**
IBS QOL Body Image, Mean change from Baseline ([2]; 32 μg/day, Week 12): 17.99**
IBS QOL Dysphoria, Mean change from Baseline ([2]; 32 μg/day, Week 12): 15.25**
IBS QOL Food Avoidance, Mean change from Baseline ([2]; 32 μg/day, Week 12): 11.36**
IBS QOL Health Worry, Mean change from Baseline ([2]; 32 μg/day, Week 12): 19.44**
IBS QOL Interference with Activity, Mean change from Baseline ([2]; 32 μg/day, Week 12): 9.42**
IBS QOL Overall, Mean change from Baseline ([2]; 32 μg/day, Week 12): 13.08**
IBS QOL Relationship, Mean change from Baseline ([2]; 32 μg/day, Week 12): 9.09*
IBS QOL Sexual, Mean change from Baseline ([2]; 32 μg/day, Week 12): 10.98**
IBS QOL Social Reaction, Mean change from Baseline ([2]; 32 μg/day, Week 12): 10.8**
IBS QOL Body Image scaled score, Mean ([2]; 48 μg group): 45.69
IBS QOL Dysphoria scaled score, Mean ([2]; 48 μg group): 56.81
IBS QOL Food Avoidance scaled score, Mean ([2]; 48 μg group): 50.37
IBS QOL Health Worry scaled score, Mean ([2]; 48 μg group): 44.07
IBS QOL Interference with Activity scaled score, Mean ([2]; 48 μg group): 68.25
IBS QOL Overall scaled score, Mean ([2]; 48 μg group): 59.85
IBS QOL Relationship scaled score, Mean ([2]; 48 μg group): 75.18
IBS QOL Sexual scaled score, Mean ([2]; 48 μg group): 71.94
IBS QOL Social Reaction scaled score, Mean ([2]; 48 μg group): 66.81
IBS QOL Body Image, Mean change from Baseline ([2]; 48 μg/day, End of Study): 14.24**
IBS QOL Dysphoria, Mean change from Baseline ([2]; 48 μg/day, End of Study): 16.28**
IBS QOL Food Avoidance, Mean change from Baseline ([2]; 48 μg/day, End of Study): 8.33**
IBS QOL Health Worry, Mean change from Baseline ([2]; 48 μg/day, End of Study): 17.05**
IBS QOL Interference with Activity, Mean change from Baseline ([2]; 48 μg/day, End of Study): 7.97**
IBS QOL Overall, Mean change from Baseline ([2]; 48 μg/day, End of Study): 11.54**
IBS QOL Relationship, Mean change from Baseline ([2]; 48 μg/day, End of Study): 6.01**
IBS QOL Sexual, Mean change from Baseline ([2]; 48 μg/day, End of Study): 3.49
IBS QOL Social Reaction, Mean change from Baseline ([2]; 48 μg/day, End of Study): 12.06**
IBS QOL Body Image, Mean change from Baseline ([2]; 48 μg/day, Week 4): 13.24**
IBS QOL Dysphoria, Mean change from Baseline ([2]; 48 μg/day, Week 4): 17.28**
IBS QOL Food Avoidance, Mean change from Baseline ([2]; 48 μg/day, Week 4): 12.01**
IBS QOL Health Worry, Mean change from Baseline ([2]; 48 μg/day, Week 4): 19.61**
IBS QOL Interference with Activity, Mean change from Baseline ([2]; 48 μg/day, Week 4): 9.14**
IBS QOL Overall, Mean change from Baseline ([2]; 48 μg/day, Week 4): 12.43**
IBS QOL Relationship, Mean change from Baseline ([2]; 48 μg/day, Week 4): 6.87**
IBS QOL Sexual, Mean change from Baseline ([2]; 48 μg/day, Week 4): 8.46**
IBS QOL Social Reaction, Mean change from Baseline ([2]; 48 μg/day, Week 4): 8.82**
IBS QOL Body Image, Mean change from Baseline ([2]; 48 μg/day, Week 12): 17.08**
IBS QOL Dysphoria, Mean change from Baseline ([2]; 48 μg/day, Week 12): 20.83**
IBS QOL Health Worry, Mean change from Baseline ([2]; 48 μg/day, Week 12): 23.33**
IBS QOL Interference with Activity, Mean change from Baseline ([2]; 48 μg/day, Week 12): 10.95**
IBS QOL Overall, Mean change from Baseline ([2]; 48 μg/day, Week 12): 14.8**
IBS QOL Relationship, Mean change from Baseline ([2]; 48 μg/day, Week 12): 6.95**
IBS QOL Sexual, Mean change from Baseline ([2]; 48 μg/day, Week 12): 5
IBS QOL Social Reaction, Mean change from Baseline ([2]; 48 μg/day, Week 12): 14.17**
IBS-QOL change from baseline vs. zero ([2]; all groups (16, 32, 48 μg)): significantly different from Zero
